Data on 24 compounds can be found in patent publication US7368578B2, “Five-membered heterocyclic compounds” (Takeda Pharmaceutical Company Limited, priority 2002, dated 2008).

For `COc1cc(COc2nn(-c3ccccc3)cc2/C=C/c2nc(N3CCOCC3)sc2C)ccc1OCc1nc(-c2cccc(C(=O)O)c2)oc1C` [Example 310, 3-[4-({2-methoxy-4-[({4-[(E)-2-(5-methyl-2-morpholin-4-yl-1,3-thiazol-4-yl)ethenyl]-1-phenyl-1H-pyrazol-3-yl}oxy)methyl]phenoxy)methyl)-5-methyl-1,3-oxazol-2-yl]benzoic acid], the melting point is 215 to 217 °C (dec.). As for `CCOC(=O)/C=C/c1nc(COc2ccc(COc3nn(-c4ccccc4)cc3C=O)cc2OC)c(C)o1` [Example 313, ethyl (2E)-3-{4-[(4-{[(4-formyl-1-phenyl-1H-pyrazol-3-yl)oxy]methyl}-2-methoxyphenoxy)methyl]-5-methyl-1,3-oxazol-2-yl}-2-propenoate], the figure is 150 to 151 °C; as for `COC(=O)c1cc(-c2nc(COc3ccc(COc4nn(-c5ccccc5)cc4C=O)cc3OC)c(C)o2)ccc1C` [Example 319, methyl 5-{4-[(4-{[(4-formyl-1-phenyl-1H-pyrazol-3-yl)oxy]methyl}-2-methoxyphenoxy)methyl]-5-methyl-1,3-oxazol-2-yl}-2-methylbenzoate], 195 to 196 °C.

In turn, `CCOC(=O)/C=C/c1nc(COc2ccc(COc3nn(-c4ccccc4)cc3/C=C/c3csc(CC)n3)cc2OC)c(C)o1` [Example 322 (E form), ethyl (2E)-3-[4-({4-[({4-[(E)-2-(2-ethyl-1,3-thiazol-4-yl)ethenyl]-1-phenyl-1H-pyrazol-3-yl}oxy)methyl]-2-methoxyphenoxy}methyl)-5-methyl-1,3-oxazol-2-yl]-2-propenoate] returned a melting point of 95 to 96 °C.

Consider `CCOC(=O)/C=C/c1nc(COc2ccc(COc3nn(-c4ccccc4)cc3/C=C\c3csc(CC)n3)cc2OC)c(C)o1` [Example 322 (Z form), ethyl (2E)-3-[4-({4-[({4-[(Z)-2-(2-ethyl-1,3-thiazol-4-yl)ethenyl]-1-phenyl-1H-pyrazol-3-yl}oxy)methyl]-2-methoxyphenoxy}methyl)-5-methyl-1,3-oxazol-2-yl]-2-propenoate], for which the melting point fell in the range of 119 to 120 °C. The figure for `CCc1nc(/C=C/c2cn(-c3ccccc3)nc2OCc2ccc(OCc3nc(/C=C/C(=O)O)oc3C)c(OC)c2)cs1` [Example 323, (2E)-3-[4-({4-[({4-[(E)-2-(2-ethyl-1,3-thiazol-4-yl)ethenyl]-1-phenyl-1H-pyrazol-3-yl}oxy)methyl]-2-methoxyphenoxy}methyl)-5-methyl-1,3-oxazol-2-yl]-2-propenoic acid] is 125 to 126 °C. The figure for `CCOC(=O)C1CCN(c2nc(COc3ccc(COc4nn(-c5ccccc5)cc4C=O)cc3OC)c(C)s2)CC1` [Example 324, ethyl 1-(4-[(4-{[(4-formyl-1-phenyl-1H-pyrazol-3-yl)oxy]methyl}-2-methoxyphenoxy)methyl]-5-methyl-1,3-thiazol-2-yl}piperidine-4-carboxylate] is 126 to 127 °C; for `CCOC(=O)c1ccc(-c2nc(COc3ccc(COc4nn(-c5ccccc5)cc4C=O)cc3OC)c(C)o2)s1` [Example 327, ethyl 5-{4-[(4-{[(4-formyl-1-phenyl-1H-pyrazol-3-yl)oxy]methyl}-2-methoxyphenoxy)methyl]-5-methyl-1,3-oxazol-2-yl}thiophene-2-carboxylate] it is 156 to 157 °C; for `CCOC(=O)c1ccc(-c2nc(COc3ccc(COc4nn(-c5ccccc5)cc4/C=C/c4csc(CC)n4)cc3OC)c(C)o2)s1` [Example 330 (E form), ethyl 5-[4-({4-[({4-[(E)-2-(2-ethyl-1,3-thiazol-4-yl)ethenyl]-1-phenyl-1H-pyrazol-3-yl}oxy)methyl]-2-methoxyphenoxy}methyl)-5-methyl-1,3-oxazol-2-yl]thiophene-2-carboxylate] it is 145 to 146 °C. The figure for `CCOC(=O)c1ccc(-c2nc(COc3ccc(COc4nn(-c5ccccc5)cc4/C=C\c4csc(CC)n4)cc3OC)c(C)o2)s1` [Example 330 (Z form), ethyl 5-[4-({4-[({4-[(Z)-2-(2-ethyl-1,3-thiazol-4-yl)ethenyl]-1-phenyl-1H-pyrazol-3-yl}oxy)methyl]-2-methoxyphenoxy}methyl)-5-methyl-1,3-oxazol-2-yl]thiophene-2-carboxylate] is 118 to 119 °C. `CCc1nc(/C=C/c2cn(-c3ccccc3)nc2OCc2ccc(OCc3nc(-c4ccc(C(=O)O)s4)oc3C)c(OC)c2)cs1` [Example 331, 5-[4-({4-[({4-[(E)-2-(2-ethyl-1,3-thiazol-4-yl)ethenyl]-1-phenyl-1H-pyrazol-3-yl}oxy)methyl]-2-methoxyphenoxy}methyl)-5-methyl-1,3-oxazol-2-yl]thiophene-2-carboxylic acid] displayed a melting point of 150 to 151 °C. As for `COc1cc(COc2nn(-c3ccccc3)cc2C=O)ccc1OCc1nc(-c2cccc(C#N)c2)oc1C` [Example 332, 3-{4-[(4-{[(4-formyl-1-phenyl-1H-pyrazol-3-yl)oxy]methyl)-2-methoxyphenoxy}methyl]-5-methyl-1,3-oxazol-2-yl}benzonitrile], the melting point was 161 to 162 °C.

`CCOC(=O)Cc1ccc(-c2nc(COc3ccc(COc4nn(-c5ccccc5)cc4/C=C/c4csc(CC)n4)cc3OC)c(C)o2)cc1` [Example 338, ethyl {4-[4-({4-[({4-[(E)-2-(2-ethyl-1,3-thiazol-4-yl)ethenyl]-1-phenyl-1H-pyrazol-3-yl}oxy)methyl]-2-methoxyphenoxy}methyl)-5-methyl-1,3-oxazol-2-yl]phenyl}acetate] registered a melting point of 140 to 141 °C. In turn, `CCOC(=O)Cc1ccc(-c2nc(COc3ccc(COc4nn(-c5ccccc5)cc4/C=C\c4csc(CC)n4)cc3OC)c(C)o2)cc1` [Example 338, ethyl {4-[4-({4-[({4-[(Z)-2-(2-ethyl-1,3-thiazol-4-yl)ethenyl]-1-phenyl-1H-pyrazol-3-yl}oxy)methyl]-2-methoxyphenoxy}methyl)-5-methyl-1,3-oxazol-2-yl]phenyl}acetate] had a melting point of 136 to 137 °C.

The compound `CCOC(=O)Cc1ccc(-c2nc(COc3ccc(COc4nn(-c5ccccc5)cc4/C=C/c4cncn4CC)cc3OC)c(C)o2)cc1` [Example 340, ethyl {4-[4-({4-[({4-[(E)-2-(1-ethyl-1H-imidazol-5-yl)ethenyl]-1-phenyl-1H-pyrazol-3-yl}oxy)methyl]-2-methoxyphenoxy)methyl)-5-methyl-1,3-oxazol-2-yl]phenyl}acetate] returned a melting point of 134 to 135 °C. The figure for `CCOC(=O)Cc1ccc(-c2nc(COc3ccc(COc4nn(-c5ccccc5)cc4/C=C\c4cncn4CC)cc3OC)c(C)o2)cc1` [Example 340, ethyl {4-[4-({4-[({4-[(Z)-2-(1-ethyl-1H-imidazol-5-yl)ethenyl]-1-phenyl-1H-pyrazol-3-yl}oxy)methyl]-2-methoxyphenoxy}methyl)-5-methyl-1,3-oxazol-2-yl]phenyl}acetate] is 85 to 86 °C. Compound `CCOC(=O)Cc1ccc(-c2nc(COc3ccc(COc4nn(-c5ccccc5)cc4/C=C/c4cn(CC)cn4)cc3OC)c(C)o2)cc1` [Example 343, ethyl (4-{4-[(4-[({4-[(E)-2-(1-ethyl-1H-imidazol-4-yl)ethenyl]-1-phenyl-1H-pyrazol-3-yl}oxy)methyl]-2-methoxyphenoxy)methyl]-5-methyl-1,3-oxazol-2-yl}phenyl)acetate] showed a melting point of 140 to 141 °C. The figure for `CCOC(=O)Cc1ccc(-c2nc(COc3ccc(COc4nn(-c5ccccc5)cc4/C=C\c4cnn(CC)c4)cc3OC)c(C)o2)cc1` [Example 346, ethyl {4-[4-({4-[({4-[(Z)-2-(1-ethyl-1H-pyrazol-4-yl)ethenyl]-1-phenyl-1H-pyrazol-3-yl}oxy)methyl]-2-methoxyphenoxy}methyl)-5-methyl-1,3-oxazol-2-yl]phenyl}acetate] is 140 to 141 °C; for `COc1cc(CN(C)c2nn(-c3ccccc3)cc2C=O)ccc1OCc1nc(-c2ccco2)oc1C` [Example 349, 3-([4-{[2-(2-furyl)-5-methyl-1,3-oxazol-4-yl]methoxy}-3-methoxybenzyl](methyl)amino)-1-phenyl-1H-pyrazole-4-carbaldehyde] it is 101 to 102 °C; for `CCOC(=O)Cc1ccc(-c2nc(COc3ccc(COc4nn(-c5ccccc5)cc4/C=C/c4csc(C)n4)cc3OC)c(C)o2)cc1` [Example 356, ethyl {4-[4-({2-methoxy-4-[({4-[(E)-2-(2-methyl-1,3-thiazol-4-yl)ethenyl]-1-phenyl-1H-pyrazol-3-yl}oxy)methyl]phenoxy}methyl)-5-methyl-1,3-oxazol-2-yl]phenyl}acetate] it is 153 to 155 °C. `CCOC(=O)Cc1ccc(-c2nc(COc3ccc(COc4nn(-c5ccccc5)cc4/C=C/c4csc(C(C)C)n4)cc3OC)c(C)o2)cc1` [Example 360, ethyl {4-[4-({4-[({4-[(E)-2-(2-isopropyl-1,3-thiazol-4-yl)ethenyl]-1-phenyl-1H-pyrazol-3-yl}oxy)methyl]-2-methoxyphenoxy}methyl)-5-methyl-1,3-oxazol-2-yl]phenyl}acetate] registered a melting point of 89 to 90 °C. `CCOC(=O)Cc1ccc(-c2nc(COc3ccc(COc4nn(-c5ccccc5)cc4/C=C\c4csc(C(C)C)n4)cc3OC)c(C)o2)cc1` [Example 360, ethyl {4-[4-({4-[({4-[(Z)-2-(2-isopropyl-1,3-thiazol-4-yl)ethenyl]-1-phenyl-1H-pyrazol-3-yl}oxy)methyl]-2-methoxyphenoxy}methyl)-5-methyl-1,3-oxazol-2-yl]phenyl}acetate] displayed a melting point of 126 to 127 °C. As for `COc1cc(COc2nn(-c3ccccc3)cc2/C=C/c2csc(CO)n2)ccc1OCc1nc(-c2ccc(CC(=O)O)cc2)oc1C` [Example 365, (4-{4-[(4-{[(4-{(E)-2-[2-(hydroxymethyl)-1,3-thiazol-4-yl]ethenyl}-1-phenyl-1H-pyrazol-3-yl)oxy]methyl}-2-methoxyphenoxy)methyl]-5-methyl-1,3-oxazol-2-yl}phenyl)acetic acid], the figure is 204 to 205 °C. In turn, `CCOC(=O)Cc1ccc(-c2nc(COc3ccc(COc4nn(-c5ccccc5)cc4/C=C/c4coc(CC)n4)cc3OC)c(C)o2)cc1` [Example 366, ethyl {4-[4-({4-[({4-[(E)-2-(2-ethyl-1,3-oxazol-4-yl)ethenyl]-1-phenyl-1H-pyrazol-3-yl}oxy)methyl]-2-methoxyphenoxy}methyl)-5-methyl-1,3-oxazol-2-yl]phenyl}acetate] had a melting point of 155 to 157 °C.
